Test results from patent US4537614A, “S-aryl and S-aliphatic diamidophosphorothiolates as urease inhibitors and urease inhibited urea based fertilizer compositions” (Allied Corporation, priority 1984, dated 1985).

Key:
urease [1] = assay: Urease Inhibiting Efficacy Test in New York soil (Cazenovia silt loam, pH 7.2); assay type: biochemical; conditions: 25° C., 3 days, remaining urea
Method: (§1) Representative compounds were tested to evaluate their efficacy in the inhibition of urease as compared to structurally similar compounds. The inhibition tests were run in a New York soil (Cazenovia silt loam, pH 7.2) and a Wisconsin soil (Plano silt loam, pH 5.4). […] The bottle was capped with perforated aluminum foil and incubated at 25° C. for 3 days prior to extraction with 100 mL of a 2M potassium chloride solution containing 0.5 mg of phenylmercuric acetate. The extracts were then analyzed for remaining urea using an autoanalyzer. Percent inhibition was calculated as
(§2) % Inhibition=[1-(A-B/A-C)]×100%
(§3) where A is urea recovered from unincubated sample (urea added to soil and immediately extracted); B is urea recovered from inhibited sample; and C is urea recovered from the control (uninhibited sample).

urease [2] = assay: Urease Inhibiting Efficacy Test in Wisconsin soil (Plano silt loam, pH 5.4); assay type: biochemical; conditions: 25° C., 3 days, remaining urea
Method: as §1, §2, §3

urease [3] = assay: Efficacy as urease inhibitor, general statement (long term residual activity); conditions: primarily because of relatively long term residual activity
[4] = 800 micrograms test compound + 42.8 mg urea per 20 g air dry soil
[5] = 200 micrograms test compound (footnote *) + 42.8 mg urea per 20 g air dry soil

Structure (SMILES)	% Inhibition Cazenovia Soil (urease [1]; [4])	% Inhibition Cazenovia Soil (urease [1]; [5])	% Inhibition Wisconsin Soil (urease [2]; [5])	efficacy among the especially efficacious compounds (urease [3])	% Inhibition Wisconsin Soil (urease [2]; [4])
COP(N)(N)=O [Comp. Ex. 1, reference compound]	34%				
CCCOP(N)(N)=O [Comp. Ex. 2, reference compound]	15%				
CCCCSP(N)(N)=O [Experiment 2, S-(n-Butyl) Diamidophosphorothiolate]		74%	82%	most efficacious	
CCC(C)SP(N)(N)=O (stereo not drawn) [Experiment 3, S-(2-Butyl) Diamidophosphorothiolate]		74%	84%		
CC(C)CSP(N)(N)=O [Experiment 4, S-(iso-Butyl) Diamidophosphorothiolate]		80%	83%	most efficacious	
CCCCCCSP(N)(N)=O [Experiment 5, S-(n-Hexyl) Diamidophosphorothiolate]		52%	66%	most efficacious	
NP(N)(=O)SC1CCCCC1 [Experiment 6, S-(Cyclohexyl) Diamidophosphorothiolate]		66%	58%		
CSP(N)(N)=O [S-Methyl Diamidophosphorothiolate]	93%				93%
